Here are results for 21 molecules from US8937091B2 (Japan Science and Technology Agency, priority 2009, dated 2015).

The structures appear in SMILES notation.

For experiment [1], the system named is IICR (IP3 induced calcium release) in CHO cells. The experiment in a line: Assay of IICR (IP3 induced calcium release)-inhibiting action. The experiment is classed as cell-based, Chinese hamster. To be noted: CHO cells, 10 μM ATP; for inhibition at 10 µM / inhibition at 30 µM / inhibition at 100 µM: Cricetulus griseus, CHO, read-out: IICR level (percentage of inhibition). In a few lines: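 CHO cell medium replaced with calcium-containing BSS; compound added 1 min later, then 10 μM ATP after a further 2 min. Percent inhibition of the ATP-evoked rise in intracellular calcium determined at each compound concentration.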

Experiment [2] deals with SOCE (store operated calcium entry) in CHO cells. The experiment in a line: Assay of SOCE (store operated calcium entry)-inhibiting action. The experiment is classed as cell-based, Chinese hamster. The settings on record: CHO cells, thapsigargin; for inhibition at 10 µM / inhibition at 30 µM / inhibition at 100 µM: Cricetulus griseus, CHO, read-out: SOCE level (percentage of inhibition). In a few lines: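 CHO cells in calcium-free BSS received compound, then 1 μM thapsigargin 2 min later to deplete stores; after 9 min, 2 mM calcium chloride (final) added. Percent inhibition of the rise in intracellular calcium determined at various compound concentrations.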

Regarding `O=C(CCN(CCO)CCO)c1cccs1` [Example 149, 2-(N-dihydroxyethyl)aminoethylthiophenylketone], the inhibition at 10 µM turned out to be 20% in experiment [1] (test compound 10 μmol) and 0% in experiment [2] (test compound 10 μmol). Further, the inhibition at 30 µM in experiment [1] (test compound 30 μmol) was found to be 20%; in experiment [2] (test compound 30 μmol) it was 0%. In addition, the inhibition at 100 µM in experiment [1] (test compound 100 μmol) amounted to 80%; in experiment [2] (test compound 100 μmol) it was 0%.

As for `CC(C)N(CCO)CCC(=O)c1ccsc1` [Example 56, 2-(hydroxyethylisopropyl)aminoethyl-3-thiophenylketone], the inhibition at 10 µM in experiment [1] (test compound 10 μmol) and in experiment [2] (test compound 10 μmol) was 0% throughout. Besides, the inhibition at 30 µM in experiment [1] (test compound 30 μmol) and in experiment [2] (test compound 30 μmol) was 0% throughout. The inhibition at 100 µM came to 50% in experiment [1] (test compound 100 μmol) and 0% in experiment [2] (test compound 100 μmol).

For `O=C(CCNCCS)c1ccc(Oc2ccccc2)cc1` [Example 112, 2-(N-mercaptoethyl)aminoethyl-4-phenoxyphenylketone], the values for the inhibition at 10 µM in experiment [1] (test compound 10 μmol) and in experiment [2] (test compound 10 μmol) were 20% and 0%, respectively. In addition, the inhibition at 30 µM in experiment [1] (test compound 30 μmol) was found to be 30%; in experiment [2] (test compound 30 μmol) it was 0%. For the same molecule, the values for the inhibition at 100 µM in experiment [1] (test compound 100 μmol) and in experiment [2] (test compound 100 μmol) were 40% and 30%, respectively.

Take `CC(C)N(CCC(=O)N1CCCCCC1=O)Cc1ccccc1` [Example 200, 3-(N-benzylisopropyl)aminopropionylcaprolactam]: the inhibition at 10 µM in experiment [1] (test compound 10 μmol) and in experiment [2] (test compound 10 μmol) was 0% throughout. Moreover, the inhibition at 30 µM in experiment [1] (test compound 30 μmol) and in experiment [2] (test compound 30 μmol) was 0% each time. The inhibition at 100 µM in experiment [1] (test compound 100 μmol) came out at 20%; in experiment [2] (test compound 100 μmol) it was 10%.

For the molecule `COC(=O)C(CSC)NCCC(=O)c1ccc(Br)s1` (stereo not drawn) [Example 409, N,N-bis(2-(5-bromo-2-thiophenoyl)ethyl)cystinemethylester], the inhibition at 10 µM worked out at 26% in experiment [1] (test compound 10 μmol) and 20% in experiment [2] (test compound 10 μmol). In addition, the figures for the inhibition at 30 µM in experiment [1] (test compound 30 μmol) and in experiment [2] (test compound 30 μmol) were 76% and 40%, respectively. The inhibition at 100 µM was 81% in experiment [1] (test compound 100 μmol) and 50% in experiment [2] (test compound 100 μmol).

As for `CC(C)(C)N(CCC(=O)c1cccnc1)Cc1ccccc1` [Example 231, 2-(N-benzyl-t-butyl)aminoethyl-3-pyridylketone], the inhibition at 10 µM in experiment [1] (test compound 10 μmol) is 20%; in experiment [2] (test compound 10 μmol) it was 0%. In addition, the inhibition at 30 µM in experiment [1] (test compound 30 μmol) came to 90%; in experiment [2] (test compound 30 μmol) it was 0%. Also, the inhibition at 100 µM in experiment [1] (test compound 100 μmol) turned out to be 100%; in experiment [2] (test compound 100 μmol) it was 0%.

Regarding `CC(C)N(CC(=O)c1ccccc1)Cc1ccccc1` [Example 168, 2-(N-isopropylbenzyl)aminomethyl-4-phenylketone], the inhibition at 10 µM in experiment [1] (test compound 10 μmol) and in experiment [2] (test compound 10 μmol) was 0% each time. The inhibition at 30 µM in experiment [1] (test compound 30 μmol) and in experiment [2] (test compound 30 μmol) was 0% throughout. For the same molecule, the inhibition at 100 µM came out at 70% in experiment [1] (test compound 100 μmol) and 50% in experiment [2] (test compound 100 μmol).

For the molecule `Cc1cc(C(=O)CCN(Cc2ccccc2)C(C)C)oc1C` [Example 225, 2-(N-isopropylbenzyl)aminoethyl-4,5-dimethyl-2-furylketone], the figures for the inhibition at 10 µM in experiment [1] (test compound 10 μmol) and in experiment [2] (test compound 10 μmol) were 20% and 10%, respectively. For the same molecule, the inhibition at 30 µM in experiment [1] (test compound 30 μmol) and in experiment [2] (test compound 30 μmol) was 30% throughout. Besides, the inhibition at 100 µM in experiment [1] (test compound 100 μmol) was 90%; in experiment [2] (test compound 100 μmol), 70%.

In the case of `COC(=O)C(CSSCC(NCCC(=O)c1nccs1)C(=O)OC)NCCC(=O)c1nccs1` (stereo not drawn) [Example 400], the inhibition at 10 µM worked out at 19% in experiment [1] (test compound 10 μmol) and 20% in experiment [2] (test compound 10 μmol). The inhibition at 30 µM in experiment [1] (test compound 30 μmol) worked out at 0%; in experiment [2] (test compound 30 μmol), 40%. Moreover, the inhibition at 100 µM in experiment [1] (test compound 100 μmol) was 13%; in experiment [2] (test compound 100 μmol), 50%.

Turning to `Cc1csc(C(=O)CCN(Cc2ccccc2)C(C)(C)C)c1` [Example 315, 2-(N-benzyl-t-butyl)aminoethyl-4-methyl-2-thienylketone], the inhibition at 10 µM in experiment [1] (test compound 10 μmol) was 80%; in experiment [2] (test compound 10 μmol), 0%. The inhibition at 30 µM was found to be 90% in experiment [1] (test compound 30 μmol) and 0% in experiment [2] (test compound 30 μmol). The inhibition at 100 µM was determined as 100% in experiment [1] (test compound 100 μmol) and 30% in experiment [2] (test compound 100 μmol).

With `Cc1nc(C)c(C(=O)CCN(CCO)C(C)C)s1` [Example 257, 2-(N-isopropyl-2-hydroxyethyl)aminoethyl-2,4-dimethyl-5-thiazolylketone], the inhibition at 10 µM in experiment [1] (test compound 10 μmol) and in experiment [2] (test compound 10 μmol) was 0% throughout. Further, the inhibition at 30 µM in experiment [1] (test compound 30 μmol) and in experiment [2] (test compound 30 μmol) was 0% throughout. Besides, the figures for the inhibition at 100 µM in experiment [1] (test compound 100 μmol) and in experiment [2] (test compound 100 μmol) were 20% and 0%, respectively.

Regarding `Cc1ccc(C(=O)CCN(Cc2ccccc2)C(C)C)s1` [Example 318, 2-(N-benzylisopropyl)aminoethyl-5-methyl-2-thienylketone], the inhibition at 10 µM in experiment [1] (test compound 10 μmol) and in experiment [2] (test compound 10 μmol) was 10% each time. The inhibition at 30 µM in experiment [1] (test compound 30 μmol) came to 60%; in experiment [2] (test compound 30 μmol), 20%. Further, the inhibition at 100 µM in experiment [1] (test compound 100 μmol) is 80%; in experiment [2] (test compound 100 μmol), 40%.

For `CCC(CO)(CO)NCCC(=O)c1ccc2c(Cl)cccc2c1` [Example 90, 2-(N-1,1-dihydroxymethylpropyl)aminoethyl-5-chloro-2-naphthylketone], the results for the inhibition at 10 µM in experiment [1] (test compound 10 μmol) and in experiment [2] (test compound 10 μmol) were 10% and 0%, respectively. For the same molecule, the inhibition at 30 µM in experiment [1] (test compound 30 μmol) stood at 20%; in experiment [2] (test compound 30 μmol) it was 10%. Moreover, the inhibition at 100 µM in experiment [1] (test compound 100 μmol) was found to be 100%; in experiment [2] (test compound 100 μmol) it was 30%.

As for `CC(CN(CCO)Cc1ccccc1)C(=O)c1ccc(F)cc1` (stereo not drawn) [Example 159, 2-(N-hydroxyethylbenzyl)amino-1-methylethyl-4-fluorophenylketone], the inhibition at 10 µM in experiment [1] (test compound 10 μmol) and in experiment [2] (test compound 10 μmol) was 0% throughout. Moreover, the inhibition at 30 µM in experiment [1] (test compound 30 μmol) and in experiment [2] (test compound 30 μmol) was 0% in each case. In addition, the inhibition at 100 µM in experiment [1] (test compound 100 μmol) and in experiment [2] (test compound 100 μmol) was 20% each time.

Regarding `CC(C)(C)N(CCO)CCC(=O)c1ccc(Br)s1` [Example 332, 2-(N-hydroxyethyl-t-butyl)aminoethyl-5-bromo-2-thienylketone], the “IICR level (percentage of inhibition)” value amounted to 0% in experiment [1] (test compound 10 μmol), 10% in experiment [1] (test compound 30 μmol) and 50% in experiment [1] (test compound 100 μmol). The figures for the “SOCE level (percentage of inhibition)” value in experiment [2] (test compound 10 μmol), in experiment [2] (test compound 30 μmol) and in experiment [2] (test compound 100 μmol) were 0%, 10% and 20%, respectively.

On to `CN(CCC(=O)c1cnccn1)Cc1ccccc1` [Example 215, 2-(N-benzylmethyl)aminoethyl-2-pyrazylketone], for which the inhibition at 10 µM in experiment [1] (test compound 10 μmol) and in experiment [2] (test compound 10 μmol) was 0% throughout. Also, the inhibition at 30 µM in experiment [1] (test compound 30 μmol) and in experiment [2] (test compound 30 μmol) was 0% throughout. Also, the inhibition at 100 µM in experiment [1] (test compound 100 μmol) came to 50%; in experiment [2] (test compound 100 μmol) it was 0%.

Consider `O=C(CCNCC(O)c1ccccc1)c1ccc(Br)s1` (stereo not drawn) [Example 349, 2-(2-hydroxy-2-phenylethyl)aminoethyl-5-bromo-2-thienylketone], for which the inhibition at 10 µM in experiment [1] (test compound 10 μmol) worked out at 20%; in experiment [2] (test compound 10 μmol), 46%. Besides, the inhibition at 30 µM in experiment [1] (test compound 30 μmol) and in experiment [2] (test compound 30 μmol) was 0% in each case. Also, the inhibition at 100 µM was found to be 50% in experiment [1] (test compound 100 μmol) and 0% in experiment [2] (test compound 100 μmol).

Regarding `CC(C)N(CC(=O)c1ccc(F)cc1)Cc1ccccc1` [Example 196, 1-(N-benzylisopropyl)aminomethyl-4-fluorophenylketone], the inhibition at 10 µM in experiment [1] (test compound 10 μmol) and in experiment [2] (test compound 10 μmol) was 0% each time. Moreover, the inhibition at 30 µM was 10% in experiment [1] (test compound 30 μmol) and 20% in experiment [2] (test compound 30 μmol). Further, the inhibition at 100 µM in experiment [1] (test compound 100 μmol) came to 30%; in experiment [2] (test compound 100 μmol) it was 40%.

With `O=C(CCN(CCO)CCO)c1ccncc1` [Example 249, 2-(N-bis-2-hydroxyethyl)aminoethyl-4-pyridylketone], the inhibition at 10 µM in experiment [1] (test compound 10 μmol) and in experiment [2] (test compound 10 μmol) was 0% in each case. Further, the figures for the inhibition at 30 µM in experiment [1] (test compound 30 μmol) and in experiment [2] (test compound 30 μmol) were 60% and 0%, respectively. The values for the inhibition at 100 µM in experiment [1] (test compound 100 μmol) and in experiment [2] (test compound 100 μmol) were 80% and 20%, respectively.

In the case of `O=C(CCN(CCO)Cc1ccccc1)c1ccc2c(Cl)cccc2c1` [Example 89, 2-(N-2-hydroxyethylbenzyl)aminoethyl-5-chloro-2-naphthylketone], the inhibition at 10 µM turned out to be 30% in experiment [1] (test compound 10 μmol) and 0% in experiment [2] (test compound 10 μmol). Besides, the inhibition at 30 µM was 80% in experiment [1] (test compound 30 μmol) and 10% in experiment [2] (test compound 30 μmol). Besides, the results for the inhibition at 100 µM in experiment [1] (test compound 100 μmol) and in experiment [2] (test compound 100 μmol) were 100% and 80%, respectively.

Take `O=C(CCN(CCO)c1ccccc1)c1ccccc1` [Example 133, 2-(N-phenylhydroxyethyl)aminoethylphenylketone]: the inhibition at 10 µM in experiment [1] (test compound 10 μmol) worked out at 20%; in experiment [2] (test compound 10 μmol), 0%. Besides, the inhibition at 30 µM in experiment [1] (test compound 30 μmol) was determined as 20%; in experiment [2] (test compound 30 μmol), 0%. Moreover, the results for the inhibition at 100 µM in experiment [1] (test compound 100 μmol) and in experiment [2] (test compound 100 μmol) were 30% and 0%, respectively.
